Measured values: patent US11192890B2, “FGFR kinase inhibitors and pharmaceutical uses” (AUCKLAND UNISERVICES LIMITED, priority 2017, dated 2021)
Like-named read-outs stand apart in the source and are kept apart here.

Legend:
SW780 cells = experiment: Oxic and anoxic anti-proliferative activity of the prodrugs; type: cell-based
[1] = Pulse radiolysis of prodrugs; type: physicochemical
[2] = Murine plasma pharmacokinetics assay; type: in vivo, NIH-III nude mice; conditions: for AUC(0-inf) / half-life / Cmax / Tmax / AUC(0-t): female, NIH-III nude, mouse, ip, plasma; for AUC(0-t): observed, read-out: AUC0-24
Description: Compound 204 was formulated in water for injection at 2 or 4 mg/ml to be administered by intraperitoneal injection at 0.02 ml/g body weight to achieve a 40 or 80 mg/kg dose. Specific pathogen-free female NIH-III mice (Crl:NIH Lyst^bg Foxn1^nu Btk^xid) were obtained from the Vernon Jansen Unit (VJU), The University of Auckland. To minimize exogenous infection, mice were maintained in individually ventilated cages at 6 mice per cage (Sealsafe Plus Mouse AERO, Tecniplast) and handled in accordance with the Guide for the Care and Use of Laboratory Animals, The University of Auckland. Mice had access to water and food ad libitum. Following dosing, at the specified time points (0.5, 1, 2, 4, 6 and 24 hours, n=3 per time point) mice were anaesthetised (isoflurane inhalation) and blood collected through cardiac puncture. Mice were subsequently culled via cervical dislocation whilst anaesthetized. Blood was collected in ice cold tubes (BD Microtainer® containing K2EDTA) and centrifuged (7 minutes at 6,500 rpm) to separate the plasma fraction. Plasma samples were stored at −80° C. until analysis. Control mice were injected with vehicle only and plasma collected as described. Prior to analysis by LC-MS/MS, calibration standards were prepared in control mouse plasma with a synthetic standard of Compound 204. Plasma samples expected to be outside the range of these standards were diluted in control mouse plasma. Standards and samples were mixed with 3 volumes of ice-cold acetonitrile containing internal standard (2 uL) and then centrifuged at 13000 rpm for 10 minutes at 4° C. The resulting supernatant was diluted in 2 volumes of 0.01% formic acid in water and 10 uL injected onto the LC-MS/MS system using an established quantitative analysis method. Pharmacokinetic parameters resulting from model fit of Compound 204 plasma concentration-time data were then derived where Tmax=time at maximum concentration, Tmax-obs=time at maximum observed concentration, Cmax-obs=maximum concentration observed, Cmax=maximum concentration determined by model, T1/2=half-life of Compound 204 in plasma during elimination phase, AUC0-24=observed area under the mean concentration-time curve, AUC0-inf=area under the concentration-time curve of the model fit.

[3] = test system: SW780 (FGFR3-amplified bladder cancer) xenograft; experiment: Anti-tumour activity, SW780 xenograft; type: in vivo, NIH-III nude mice; conditions: q3dx4, IP
Description: Specific pathogen-free homozygous female NIH-III nude mice (Charles River Laboratories, Wilmington, Mass.) were inoculated subcutaneously with a single cell suspension of SW780 cells (8×10^6 cells/100 μL with Matrigel; right flank) or SNU-16 cells (10×10^6 cells/100 μL; right flank). When tumour xenografts were established (typically 7-14 days for SW780 and 21-28 days for SNU-16) mice were randomized to treatment groups. Test compounds of the present invention were prepared in Water for Injection (WFI). Mice were dosed by intraperitoneal injection (0.01-0.03 ml/g) using the stated schedules and dose levels. […] Tumour size and body weights were measured at regular intervals. Tumour volume was calculated as […] (length×width^2)/6.

[4] = test system: SNU-16 (FGFR2-amplified) gastric cancer xenograft; experiment: Anti-tumour activity, SNU-16 xenograft; type: in vivo, NIH-III nude mice; conditions: 80 mg/kg, q7dx2, IP; to day 11
Description: Specific pathogen-free homozygous female NIH-III nude mice (Charles River Laboratories, Wilmington, Mass.) were inoculated subcutaneously with a single cell suspension of SW780 cells (8×10^6 cells/100 μL with Matrigel; right flank) or SNU-16 cells (10×10^6 cells/100 μL; right flank). […] Test compounds of the present invention were prepared in Water for Injection (WFI). Mice were dosed by intraperitoneal injection (0.01-0.03 ml/g) using the stated schedules and dose levels. […] Tumour size and body weights were measured at regular intervals. Tumour volume was calculated as n (length×width^2)/6.

[5] = test system: 4T1 murine syngeneic breast cancer cells; experiment: Anti-tumour activity, murine 4T1 model; type: in vivo, BALB/c mice; conditions: 70 mg/kg IP, controls 16 days
Description: Studies in BALB/c mice: 4T1 murine syngeneic breast cancer cells (7.5×10^6 cells/mouse) were implanted into the subcutaneous space, in the right flank of immunocompetent BALB/c female mice. Treatment with Compound 204 started at the stated day post cell-implant. Compound 204 was administered intraperitoneally at the stated dose and schedule in Water for Injection. Tumour measurements and body weight were recorded every day, until all tumours increased their volume 4-fold (RTV^4) from day0 of experimental assignment.

[6] = test system: SiHa xenograft (tumour hypoxia); experiment: EF5 immunostaining and MALDI imaging mass spectrometry assay; type: in vivo, NIH-III nude mice; conditions: 86 mg/kg IP, tumours collected after 24 hours; EF5 60 mg/kg
Description: SiHa cervical tumour cells were implanted into the flanks of female NIH-III mice to form subcutaneous xenografts. […] Vehicle and drug-treated SiHa tumours were sectioned at 12 um and collected by melting. Five serial sections were collected from each sample such that sections 1, 3 and 5 were mounted on a standard glass slide for optical microscopy, while sections 2 and 4 were mounted on ITO coated glass slides for MALDI imaging. Slides were stored at −80° C. until required.
Imaging mass spectrometry was performed at 30 um spatial resolution using a MALDI FT-ICR mass spectrometer (Bruker Solarix-XR 7T) operating in positive ion mode. […] They were washed in dH2O for 5 minutes, in Tris-Buffered saline (TBS) for 10 minutes and blocked with 10% goat serum in TBS and 1% Tween-20, for 1 h, at room temperature. Sections were then incubated with Alexa488-ELK3-51 antibody (Hypoxia-Imaging.org, University of Pennsylvania, US) that recognises EF5 adducts in hypoxic cells and counterstained with DAPI.

H520 cells = experiment: Oxic and anoxic anti-proliferative activity of the prodrugs
SUM52 cells = experiment: as above

COc1cc(OC)c(Cl)c(N2Cc3cnc(Nc4ccccc4)nc3N(C3CCN(C(=O)/C=C/C[N+](C)(C)Cc4c([N+](=O)[O-])ncn4C)CC3)C2=O)c1Cl.[Br-] [Compound 204, (E)-4-(4-(3-(2,6-dichloro-3,5-dimethoxyphenyl)-2-oxo-7-(phenylamino)-3,4-dihydropyrimido[4,5-d]pyrimidin-1(2H)-yl)piperidin-1-yl)-N,N-dimethyl-N-((1-methyl-4-nitro-1H-imidazol-5-yl)methyl)-4-oxobut-2-en-1-aminium bromide]
IC50 (SW780 cells; Homo sapiens, SW780, oxic conditions, read-out: Cellular Anti-proliferative IC50, SW780, Oxic): 1390 nM | fold less potent than the inhibitor compound 112 at inhibiting proliferation (deactivation) (SW780 cells; SW780, oxic): 143 fold | first order rate of fragmentation kfrag [1]: 30 s⁻¹ | change of maximum plasma concentration and area under the plasma concentration-time curve with increase in dose ([2]; 40 and 80 mg/kg intraperitoneal): linear increase | time to maximum plasma concentration ([2]; doses of 40 and 80 mg/kg intraperitoneal): 2 to 3 h | AUC(0-inf) ([2]; 40 mg/kg intraperitoneal, model fit): 262 ± 10.8 µM·h | AUC(0-inf) ([2]; 80 mg/kg intraperitoneal, model fit): 606 ± 103 µM·h | half-life ([2]; 40 mg/kg, 40 mg/kg intraperitoneal, elimination phase, read-out: T1/2 (converted)): 1.21 ± 0.06 h | Cmax ([2]; 40 mg/kg, 40 mg/kg intraperitoneal, model fit, read-out: Cmax): 54.9 ± 2.38 µM | Tmax ([2]; 40 mg/kg, 40 mg/kg intraperitoneal, model fit, read-out: Tmax): 1.75 ± 0.06 h | AUC(0-t) ([2]; 40 mg/kg, 40 mg/kg intraperitoneal): 382 µM·h | Cmax ([2]; 40 mg/kg, 40 mg/kg intraperitoneal, read-out: Cmax-obs): 51.8 ± 7.46 µM | Tmax ([2]; 40 mg/kg, 40 mg/kg intraperitoneal, read-out: Tmax-obs): 2 h | half-life ([2]; 80 mg/kg, 80 mg/kg intraperitoneal, elimination phase, read-out: T1/2 (converted)): 1.79 ± 0.36 h | Cmax ([2]; 80 mg/kg, 80 mg/kg intraperitoneal, model fit, read-out: Cmax): 86.4 ± 10.4 µM | Tmax ([2]; 80 mg/kg, 80 mg/kg intraperitoneal, model fit, read-out: Tmax): 2.58 ± 0.36 h | AUC(0-t) ([2]; 80 mg/kg, 80 mg/kg intraperitoneal): ~900 µM·h | Cmax ([2]; 80 mg/kg, 80 mg/kg intraperitoneal, read-out: Cmax-obs): 77.3 ± 14.7 µM | Tmax ([2]; 80 mg/kg, 80 mg/kg intraperitoneal, read-out: Tmax-obs): 4 h | half-life ([2]; 80 mg/kg, doses of 40 and 80 mg/kg intraperitoneal, read-out: plasma half-life): 1.2 to 1.8 h | time for tumours to reach RTV4 ([3]; 100 umol/kg dose): approximately 26 days | tumour response at the higher doses tested ([3]; 30 to 133 umol/kg/dose): regressed the tumours | tumour response [4]: regressed following each drug administration | median survival time ([5]; q2dx3): 18 days | median survival time ([5]; q3dx3): 20 days | median survival time ([5]; q4dx3): 21 days | median survival time ([5]; q5dx3): 22 days | metabolism of prodrug and release of FGFR inhibitor compound 112 in tumours [6]: hypoxia-selective metabolism | fold less potent than the inhibitor compound 112 at inhibiting proliferation (deactivation) (H520 cells; H520, oxic): 307 fold | Hypoxic Cytotoxicity Ratio (HCR), H520 (H520 cells; ratio of oxic and anoxic IC50): 27 | IC50 (H520 cells; read-out: Cellular Anti-proliferative IC50, H520, Anoxic, 4 hours of anoxia, remainder of assay oxic): 47 nM | IC50 (H520 cells; read-out: Cellular Anti-proliferative IC50, H520, Oxic, oxic conditions): 1260 nM | fold less potent than the inhibitor compound 112 at inhibiting proliferation (deactivation) (SUM52 cells; SUM52, oxic): 296 fold | Hypoxic Cytotoxicity Ratio (HCR), SUM52 (SUM52 cells; ratio of oxic and anoxic IC50): 12 | IC50 (SUM52 cells; read-out: Cellular Anti-proliferative IC50, SUM52, Anoxic, 4 hours of anoxia, remainder of assay oxic): 17 nM | IC50 (SUM52 cells; read-out: Cellular Anti-proliferative IC50, SUM52, Oxic, oxic conditions): 207 nM
